Experimental data taken from US20140249135A1, “PIM KINASE INHIBITORS AND METHODS OF THEIR USE” (NOVARTIS AG, priority 2007, published 2014).
Read-outs that look alike come from different tables or passages of the source.

Columns and labels:
Type in all cases: biochemical
Pim1 kinase = Pim1 kinase (Homo sapiens, UniProt P11309); assay: Pim1 ATP depletion assay;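 also: Luciferase-luciferin luminescence readout of residual ATP after PIM1 transfers phosphate to a peptide substrate, 40 µM ATP added, reaction run to roughly half ATP consumption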
Sequence of Pim1 kinase (P11309 whole entry): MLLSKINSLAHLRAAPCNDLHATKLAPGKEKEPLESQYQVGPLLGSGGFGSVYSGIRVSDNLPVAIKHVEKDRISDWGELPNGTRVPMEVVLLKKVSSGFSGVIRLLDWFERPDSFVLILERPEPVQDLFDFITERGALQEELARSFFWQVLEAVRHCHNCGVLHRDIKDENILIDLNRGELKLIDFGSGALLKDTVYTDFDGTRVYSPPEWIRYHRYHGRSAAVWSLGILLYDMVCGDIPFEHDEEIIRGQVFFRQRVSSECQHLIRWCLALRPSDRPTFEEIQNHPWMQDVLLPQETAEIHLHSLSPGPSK

Pim2 kinase = Pim2 kinase (Homo sapiens, UniProt Q9P1W9); assay: Pim2 ATP depletion assay;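 also: Luciferase-based luminescent readout of ATP remaining after PIM2 phosphorylates a BAD peptide, final 5 nM enzyme, 4 µM ATP, 10 µM peptide, 2.5% DMSO, run to roughly half ATP consumption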
Sequence of Pim2 kinase (Q9P1W9 whole entry): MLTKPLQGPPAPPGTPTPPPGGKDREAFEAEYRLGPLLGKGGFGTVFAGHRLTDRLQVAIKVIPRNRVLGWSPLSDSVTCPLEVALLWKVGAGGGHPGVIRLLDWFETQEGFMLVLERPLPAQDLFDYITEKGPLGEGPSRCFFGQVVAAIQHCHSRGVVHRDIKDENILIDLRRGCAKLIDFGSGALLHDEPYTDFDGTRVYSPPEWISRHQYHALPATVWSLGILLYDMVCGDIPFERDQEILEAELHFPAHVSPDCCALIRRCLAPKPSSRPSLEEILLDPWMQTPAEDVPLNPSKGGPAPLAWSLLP

Pim3 kinase = Pim3 kinase (Homo sapiens, UniProt Q86V86); assay: Pim3 ATP depletion assay
[1] = Pim1 ATP depletion assay, read-out: IC50 (μM) PIM1
[2] = Pim1 ATP depletion assay, read-out: PIM1 IC50

Structure (SMILES) | IC50 (Pim1 kinase; [1]) [µM] | IC50 (Pim2 kinase; read-out: IC50 (μM) PIM2) [µM] | IC50 (Pim3 kinase; read-out: IC50 (μM) PIM3) [µM] | IC50 (Pim1 kinase; [2]) [µM] | IC50 (Pim2 kinase; read-out: PIM2 IC50) [µM] | IC50 (Pim3 kinase; read-out: PIM3 IC50) [µM] | IC50 (Pim1 kinase) [µM]
Nc1ccc(-c2cncs2)nc1C(=O)Nc1cnccc1N1CCC[C@H](N)C1 [Example 688, 3-Amino-6-thiazol-5-yl-pyridine-2-carboxylic acid (3-amino-3,4,5,6-tetrahydro-2H-[1,4′]bipyridinyl-3′-yl)-amide] |  |  |  | < 1 | < 1 | < 1 | 
NC1CCCN(c2ccncc2NC(=O)c2cnccn2)C1 (stereo not drawn) [Example 197, N-[4-(3-aminopiperidin-1-yl)-pyridin-3-yl]pyrazine-2-carboxamide] | > 25 | > 25 | > 25 |  |  |  | 
Nc1cnc(-c2ccccc2F)nc1C(=O)Nc1cnccc1N1CCC[C@H](N)C1 [Example 263, 5-Amino-2-(2-fluoro-phenyl)-pyrimidine-4-carboxylic acid (3-amino-3,4,5,6-tetrahydro-2H-[1,4′]bipyridinyl-3′-yl)-amide] | < 1 | < 1 | < 1 |  |  |  | 
NCC(=O)N1CCN(c2ccncc2NC(=O)c2nc(-c3ccccc3F)ccc2N)CC1 [Example 252, 3-Amino-6-(2-fluoro-phenyl)-pyridine-2-carboxylic acid {4-[4-(2-amino-acetyl)-piperazin-1-yl]-pyridin-3-yl}-amide] | < 1 | < 1 | < 1 |  |  |  | 
Nc1cc(F)c(-c2cccc(S(N)(=O)=O)c2)nc1C(=O)Nc1cnccc1N1CCC[C@H](N)C1 [Example 497, 3-Amino-5-fluoro-6-(3-sulfamoyl-phenyl)-pyridine-2-carboxylic acid (3-amino-3,4,5,6-tetrahydro-2H-[1,4′]bipyridinyl-3′-yl)-amide] | < 1 | < 1 | < 1 |  |  |  | 
Nc1ccc(-c2sccc2Cl)nc1C(=O)Nc1cnccc1N1CCC[C@H](N)C1 [Example 474, 3-Amino-6-(3-chloro-thiophen-2-yl)-pyridine-2-carboxylic acid (3-amino-3,4,5,6-tetrahydro-2H-[1,4′]bipyridinyl-3′-yl)-amide] | < 1 | < 1 | < 1 |  |  |  | 
CS(=O)(=O)c1ccc(N2CCC(N)CC2)c(NC(=O)c2nccnc2N)c1 [Example 234, 3-amino-N-[2-(4-aminopiperidin-1-yl)-5-(methylsulfonyl)phenyl]-pyrazine-2-carboxamide] | 1 to 10 | > 25 | 10 to 25 |  |  |  | 
Nc1ccc(-c2cc(C(=O)Nc3ccccc3)ccc2F)nc1C(=O)Nc1cnccc1N1CCCC(O)C1 (stereo not drawn) [Example 656, 3-Amino-6-(2-fluoro-5-phenyl-carbamoyl-phenyl)-pyridine-2-carboxylic acid (3-hydroxy-3,4,5,6-tetrahydro-2H-[1,4′]bi-pyridinyl-3′-yl)-amide] |  |  |  | < 1 | < 1 | < 1 | 
Nc1ccc(-c2cccc(OCc3ccccc3)n2)nc1C(=O)Nc1cnccc1N1CCC[C@H](N)C1 [Example 695, 5-Amino-6′-benzyloxy-[2,2′]bi-pyridinyl-6-carboxylic acid (3-amino-3,4,5,6-tetrahydro-2H-[1,4′]bipyridinyl-3′-yl)-amide] |  |  |  | < 1 | < 1 | < 1 | 
N[C@H]1CCCN(c2ccncc2NC(=O)c2nc(-c3ccccc3)ccc2F)C1 [Example 568, 3-Fluoro-6-phenyl-pyridine-2-carboxylic acid (3-amino-3,4,5,6-tetrahydro-2H-[1,4′]bipyridinyl-3′-yl)-amide] |  |  |  | < 1 | < 1 | < 1 | 
CS(=O)(=O)c1ccc(-c2ccc(N)c(C(=O)Nc3cnccc3N3CCC[C@H](N)C3)n2)nc1 [Example 698, 5-Amino-5′-methanesulfonyl-[2,2′]bipyridinyl-6-carboxylic acid (3-amino-3,4,5,6-tetra-hydro-2H-[1,4′]bipyridinyl-3′-yl)-amide] |  |  |  | < 1 | < 1 | < 1 | 
Nc1ccc(-c2ccc(-c3cccs3)s2)nc1C(=O)Nc1cnccc1N1CCC[C@H](N)C1 [Example 446, 3-Amino-6-[2,2′]bithiophenyl-5-yl-pyridine-2-carboxylic acid (3-amino-3,4,5,6-tetrahydro-2H-[1,4′]bipyridinyl-3′-yl)-amide] | < 1 | < 1 | < 1 |  |  |  | 
CN(C)C(=O)c1ccc(F)c(-c2ccc(N)c(C(=O)Nc3cnccc3N3CCCC(O)C3)n2)c1 (stereo not drawn) [Example 657, 3-Amino-6-(5-dimethyl-carbamoyl-2-fluoro-phenyl)-pyridine-2-carboxylic acid (3-hydroxy-3,4,5,6-tetrahydro-2H-[1,4′]bipyridinyl-3′-yl)-amide] |  |  |  | < 1 | < 1 | < 1 | 
COc1ccc(F)c(-c2nc(C(=O)Nc3cnccc3N3CCC[C@H](N)C3)c(N)cc2F)c1F [Example 510, 3-Amino-6-(2,6-difluoro-3-methoxy-phenyl)-5-fluoro-pyridine-2-carboxylic acid (3-amino-3,4,5,6-tetrahydro-2H-[1,4′]bipyridinyl-3′-yl)-amide] | < 1 | < 1 | < 1 |  |  |  | 
COc1ncccc1-c1ccc(N)c(C(=O)Nc2cnccc2-c2ccccc2C)n1 [Example 584, 5-amino-2′-methoxy-[2,3′]bi-pyridinyl-6-carboxylic acid (4-o-tolyl-pyridin-3-yl)-amide] |  |  |  | < 1 | 1 to 10 | < 1 | 

Results, then the compound that gave them:

IC50 (Pim1 kinase; [1]) [µM] | IC50 (Pim2 kinase; read-out: IC50 (μM) PIM2) [µM] | IC50 (Pim3 kinase; read-out: IC50 (μM) PIM3) [µM] | IC50 (Pim1 kinase; [2]) [µM] | IC50 (Pim2 kinase; read-out: PIM2 IC50) [µM] | IC50 (Pim3 kinase; read-out: PIM3 IC50) [µM] | IC50 (Pim1 kinase) [µM] | Structure (SMILES)
< 1 | < 1 | < 1 |  |  |  |  | CC(C)c1cccc(-c2ccc(N)c(C(=O)Nc3cnccc3N3CCC[C@H](N)C3)n2)c1 [Example 456, 3-Amino-6-(3-isopropyl-phenyl)-pyridine-2-carboxylic acid (3-amino-3,4,5,6-tetrahydro-2H-[1,4′]bipyridinyl-3′-yl)-amide]
< 1 | < 1 | < 1 |  |  |  |  | CC(C)NC(=O)c1ccc(F)c(-c2ccc(N)c(C(=O)Nc3cnccc3N3C[C@@H](N)C[C@H](O)C3)n2)c1 [Example 296, 3-Amino-6-(2-fluoro-5-isopropylcarbamoyl-phenyl)-pyridine-2-carboxylic acid (3-amino-5-hydroxy-3,4,5,6-tetra-hydro-2H-[1,4′]bipyridinyl-3′-yl)-amide]
 |  |  | < 1 | < 1 | < 1 |  | Nc1ccc(-c2cc(C(F)(F)F)ccn2)nc1C(=O)Nc1cnccc1N1CCC[C@H](N)C1 [Example 715, 5-Amino-4′-trifluoromethyl-[2,2′]bipyridinyl-6-carboxylic acid (3-amino-3,4,5,6-tetra-hydro-2H-[1,4′]bipyridinyl-3′-yl)-amide]
< 1 | < 1 | < 1 |  |  |  |  | Nc1ccc(-c2c(F)cccc2F)nc1C(=O)Nc1cnccc1N1CC(N)CC(CF)C1 (stereo not drawn) [Example 278, 3-Amino-6-(2,6-difluoro-phenyl)-pyridine-2-carboxylic acid (5-amino-3-fluoromethyl-3,4,5,6-tetrahydro-2H-[1,4′]bi-pyridinyl-3′-yl)-amide]
< 1 | < 1 | < 1 |  |  |  |  | Nc1ccc(-c2cccc(C(F)(F)F)c2)nc1C(=O)Nc1cnccc1N1CCC[C@H](N)C1 [Example 460, 3-Amino-6-(3-trifluoromethyl-phenyl)-pyridine-2-carboxylic acid (3-amino-3,4,5,6-tetrahydro-2H-[1,4′]bipyridinyl-3′-yl)-amide]
 |  |  | < 1 | < 1 | < 1 |  | CC(C)N(C)C(=O)c1ccc(F)c(-c2ccc(N)c(C(=O)Nc3cnccc3N3CCC[C@H](N)C3)n2)c1F [Example 689, 3-Amino-6-[2,6-difluoro-3-(isopropyl-methyl-carbamoyl)-phenyl]-pyridine-2-carboxylic acid (3-amino-3,4,5,6-tetra-hydro-2H-[1,4′]bipyridinyl-3′-yl)-amide]
 |  |  | < 1 | < 1 | < 1 |  | Nc1ccc(-c2c(F)cccc2F)nc1C(=O)Nc1cnccc1-c1cccnc1N [Example 630, 3-amino-N-(2-amino-3,4′-bipyridin-3′-yl)-6-(2,6-difluorophenyl)pyridine-2-carboxamide]
 | < 1 | < 1 |  |  |  | < 1 | Nc1ccc(-c2ccccc2C(F)(F)F)nc1C(=O)Nc1cnccc1N1CCC[C@H](N)C1 [Example 336]
 |  |  | < 1 | < 1 | < 1 |  | N#Cc1cc(-c2ccncc2NC(=O)c2nc(-c3c(F)cccc3F)ccc2N)ccn1 [Example 618, 3-amino-N-(2′-cyano-4,4′-bipyridin-3-yl)-6-(2,6-difluorophenyl)pyridine-2-carboxamide]
< 1 | < 1 | < 1 |  |  |  |  | Cc1cccc(C)c1-c1nc(C(=O)Nc2cnccc2N2CCC[C@H](N)C2)c(N)cc1F [Example 509, 3-Amino-6-(2,6-dimethyl-phenyl)-5-fluoro-pyridine-2-carboxylic acid (3-amino-3,4,5,6-tetrahydro-2H-[1,4′]bipyridinyl-3′-yl)-amide]
< 1 | < 1 | < 1 |  |  |  |  | CC(C)Oc1ccc(F)c(-c2ccc(N)c(C(=O)Nc3cnccc3N3CCC[C@H](N)C3)n2)c1F [Example 488, 3-Amino-6-(2,6-difIuoro-3-isopropoxy-phenyl)-pyridine-2-carboxylic acid (3-amino-3,4,5,6-tetrahydro-2H-[1,4′]bipyridinyl-3′-yl)-amide]
 |  |  | < 1 | < 1 | < 1 |  | CC(=O)c1cccc(-c2ccc(N)c(C(=O)Nc3cnccc3N3CCC[C@H](N)C3)n2)n1 [Example 706, 6′-Acetyl-5-amino-[2,2′]bi-pyridinyl-6-carboxylic acid (3-amino-3,4,5,6-tetrahydro-2H-[1,4′]bipyridinyl-3′-yl)-amide]
< 1 | < 1 | < 1 |  |  |  |  | Nc1ccc(-c2cccc(Cl)c2F)nc1C(=O)Nc1cnccc1N1CCC[C@H](N)C1 [Example 479, 3-Amino-6-(3-chloro-2-fluoro-phenyl)-pyridine-2-carboxylic acid (3-amino-3,4,5,6-tetrahydro-2H-[1,4′]bipyridinyl-3′-yl)-amide]
